In patent US7868135B2, “Compositions of lipopeptide antibiotic derivatives and methods of use thereof” (priority 2003, dated 2011):
Read-outs that look alike come from different tables or passages of the source. Marks after values point to notes of the source that are not given here.

Columns and labels:
[1] = system: Staphylococcus aureus SAU0031 (VISA); assay: Broad spectrum MIC, Table 17/18 column G; assay type: cell-based; details: condition G of Table 17, in µg/mL
Description: (§1) The antimicrobial lipopeptide derivatives described herein were tested for antimicrobial activity against Gram-positive bacteria as follows. The minimum inhibitory concentrations (MIC) of the antimicrobial lipopeptide derivatives of the invention were determined using NCCLS guidelines M7-A6 (2003) with a slight modification in that doubling serial dilutions were used to dilute the test compounds. The broth phase microdilution method was used. Isolated colonies of Staphylococcus aureus (MSSA) from an 18-24 hour blood agar plate cultures were used to inoculate cation adjusted Mueller-Hinton broth (CAMHB) supplemented with 0.625 mM calcium. […] A negative control containing media alone and a positive growth control containing bacteria with media alone were also included. MICs were determined after incubating the plates at about 37° C. for 24 hours. […] In Tables 1 to 16, R is the core cyclic peptide of amphomycin or aspartocin, which can be in the form of a β-isomer, an anhydro, a dianhydro, or any combination thereof. […] Furthermore, a person of skill in the art will appreciate that all the pounds, or groups of compounds, derived from the various combinations of and substituents shown in Tables 1 to 16, are disclosed by the present the same extent as if each compound or group of compounds was set forth individually.
(§2) Antimicrobial lipopeptide derivatives of the instant invention were tested for antimicrobial activity against Gram-positive bacteria in a variety of media conditions. The […] (MIC) of the antimicrobial lipopeptide derivatives were determined as described in Example 376. The various media used are described in Table 17.

[2] = system: Staphylococcus aureus SAU0065 (MRSA); assay: Broad spectrum MIC, Table 17/18 column H; assay type: cell-based; details: condition H of Table 17, in µg/mL
Description: as §1, §2

[3] = system: Streptococcus pneumoniae SPN0023 (PRSP); assay: Broad spectrum MIC, Table 17/18 column K; assay type: cell-based; details: condition K of Table 17, in µg/mL
Description: as §1, §2

[4] = system: Staphylococcus epidermidis SEP0375 (MRSE); assay: Broad spectrum MIC, Table 17/18 column I; assay type: cell-based; details: condition I of Table 17, in µg/mL
Description: as §1, §2

[5] = system: Enterococcus faecalis EFS0004 (VSE); assay: Broad spectrum MIC, Table 17/18 B, C, D (CAMHB; + 0.625 mM calcium; + calcium and 30% bovine serum); assay type: cell-based; details: in µg/mL; for MIC, media condition B: condition B: CAMHB; for MIC, media condition C: condition C: + 0.625 mM calcium; for MIC, media condition D: condition D: + calcium and 30% bovine serum
Description: as §1, §2

[6] = system: Streptococcus pneumoniae SPN0002 (PISP); assay: Broad spectrum MIC, Table 17/18 column J; assay type: cell-based; details: condition J of Table 17, in µg/mL
Description: as §1, §2

[7] = system: Enterococcus faecium EFM0101 (VRE, MDR); assay: Broad spectrum MIC, Table 17/18 column A; assay type: cell-based; details: condition A of Table 17, in µg/mL
Description: as §1, §2

[8] = system: Streptococcus pneumoniae SPN0032 (PSSP); assay: Broad spectrum MIC, Table 17/18 column L; assay type: cell-based; details: condition L of Table 17, in µg/mL
Description: as §1, §2

[9] = system: Streptococcus pyogenes SPY0001 (PenS); assay: Broad spectrum MIC, Table 17/18 column M; assay type: cell-based; details: condition M of Table 17, in µg/mL
Description: as §1, §2

[10] = system: Staphylococcus aureus SAU0017 (MSSA); assay: Broad spectrum MIC, Table 17/18 columns E, F (+ 0.625 mM calcium; + calcium and 30% bovine serum); assay type: cell-based; details: in µg/mL; for MIC, media condition E: condition E: + 0.625 mM calcium; for MIC, media condition F: condition F: + calcium and 30% bovine serum
Description: as §1, §2

[11] = system: Staphylococcus aureus (MSSA)
In short: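 Broth microdilution MIC per NCCLS M7-A6 with doubling serial dilutions, in cation-adjusted Mueller-Hinton broth supplemented with 0.625 mM calcium.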

[12] = S. aureus (MSSA), CAMHB supplemented with 0.625 mM calcium, 24 hours at about 37° C., a range = compound tested multiple times

Molecule | MIC, media condition G [1] | MIC, media condition H [2] | MIC, media condition K [3] | MIC, media condition I [4] | MIC, media condition B [5] | MIC, media condition C [5] | MIC, media condition D [5] | MIC, media condition J [6] | MIC, media condition A [7] | MIC, media condition L [8] | MIC, media condition M [9] | MIC, media condition E [10] | MIC, media condition F [10] | MIC ([11]; 24 h) [µg/mL] | MIC [11, 12]
CCCCCCCCCCCCCCC(=O)NC(CC(=O)O)C(=O)NC1C(=O)N2CCCCC2C(=O)NC(C(C)C(=O)O)C(=O)NC(CC(=O)O)C(=O)NCC(=O)NC(CC(=O)O)C(=O)NCC(=O)NC(C(C)N)C(=O)NC(C(C)C)C(=O)N2CCCC2C(=O)NC1C (stereo not shown) [Compound 2, C15-Amphomycin] | 8 | 4 | 0.125 | 4 | 2 | 1 | 64 | 0.125 | 4 | 0.5 | 1 | 4 | 8 |  | 
CCCCCCCCCCCCCCCC(=O)NC(CC(=O)O)C(=O)NC1C(=O)N2CCCCC2C(=O)NC(C(C)C(=O)O)C(=O)NC(CC(=O)O)C(=O)NCC(=O)NC(CC(=O)O)C(=O)NCC(=O)NC(C(C)N)C(=O)NC(C(C)C)C(=O)N2CCCC2C(=O)NC1C (stereo not shown) [Compound 11, C16-Amphomycin] | 2-4 | 2-4 | 0.125 | 1 | 0.5 | 0.5-1 | 64 | 0.25 | 0.5-1 | 0.25 | 0.25-0.5 | 0.5 | 8-16 | 0.5 | 
CCCCCCCCCCCCCCCCC(=O)NC(CC(=O)O)C(=O)NC1C(=O)N2CCCCC2C(=O)NC(C(C)C(=O)O)C(=O)NC(CC(=O)O)C(=O)NCC(=O)NC(CC(=O)O)C(=O)NCC(=O)NC(C(C)N)C(=O)NC(C(C)C)C(=O)N2CCCC2C(=O)NC1C (stereo not shown) [Compound 12, C17-Amphomycin] | 4-8 | 1-2 | 0.125 | 2 | 0.5-1 | 1 | 64 | 0.25 | 0.5-1 | 0.25-0.5 | 0.5 | 1-2 | 32-64 | 1 to 2 | 
CCCCCCCCCCCCOc1ccc(C(=O)NC(CC(=O)O)C(=O)NC2C(=O)N3CCCCC3C(=O)NC(C(C)C(=O)O)C(=O)NC(CC(=O)O)C(=O)NCC(=O)NC(CC(=O)O)C(=O)NCC(=O)NC(C(C)N)C(=O)NC(C(C)C)C(=O)N3CCCC3C(=O)NC2C)cc1 (stereo not shown) [Compound 15, CH3—(CH2)11—O-p-Ph-C(═O)-Amphomycin] | 4-8 | 2-8 | 0.125-0.5 | 2-4 | 2-4 | 1-4 | >64 | 0.125-1 | 2-4 | 0.25-1 | 0.5-2 | 2-4 | 32 | 2 to 4 | 
CCCCCCCCCCCCCCC(=O)NC(CC(=O)O)C(=O)NC1C(=O)N2CCCCC2C(=O)NC(C(C)C(=O)O)C(=O)NC(CC(=O)O)C(=O)NCC(=O)NC(CC(=O)O)C(=O)NCC(=O)NC(C(C)NC(=O)[C@H]2CCCN2)C(=O)NC(C(C)C)C(=O)N2CCCC2C(=O)NC1C (stereo partly drawn) [Compound 67, C15-Amphomycin-9-(D-Pro)] | 8 | 2 | 0.5 | 2 | 2-4 | 2 | 64 | 0.5 | 2 | 0.5 | 0.5-1 | 1-2 | 8-16 | 1 to 2 | 
CCCCCCCCCCCCOc1ccc(C(=O)NC(CC(=O)O)C(=O)NC2C(=O)N3CCCCC3C(=O)NC(C(C)C(=O)O)C(=O)NC(CC(=O)O)C(=O)NCC(=O)NC(CC(=O)O)C(=O)NCC(=O)NC(C(C)NC(=O)CN)C(=O)NC(C(C)C)C(=O)N3CCCC3C(=O)NC2C)cc1 (stereo not shown) [Compound 88, CH3—(CH2)11—O-p-Ph-C(═O)-Amphomycin-9-Gly] | 2-4 | 0.5-1 | 0.125 | 0.5-1 | 0.5-1 | 0.25-0.5 | >64 | 0.25 | 0.25-0.5 | 0.25 | 0.25-0.5 | 0.5-1 | 32-64 |  | 
CH3—(CH2)10—NH—C(═O)-(p-Phenylacetyl)-Amphomycin [Compound 290] |  |  |  |  |  |  |  |  |  |  |  |  |  |  | 1 µg/mL
CH3—(CH2)13—NH—C(═O)-(M-Phenylacetyl)-Amphomycin [Compound 292] |  |  |  |  |  |  |  |  |  |  |  |  |  |  | 1 µg/mL
CH3—(CH2)13—NH—C(═O)-(p-Phenylacetyl)-Amphomycin [Compound 289] |  |  |  |  |  |  |  |  |  |  |  |  |  |  | 2 µg/mL
CH3—(CH2)15—NH—C(═O)-(M-Phenylacetyl)-Amphomycin [Compound 302] |  |  |  |  |  |  |  |  |  |  |  |  |  |  | 4 µg/mL
CH3—(CH2)15—NH—C(═O)-(p-Phenylacetyl)-Amphomycin [Compound 287] |  |  |  |  |  |  |  |  |  |  |  |  |  |  | 4 µg/mL
Lys-Gly-Amphomycin-9-C13 [Compound 332] |  |  |  |  |  |  |  |  |  |  |  |  |  |  | >64 µg/mL
β-Isomer of (8-Dodecyloxy-Quinoline-2-Carbonyl)-Amphomycin [Compound 340] |  |  |  |  |  |  |  |  |  |  |  |  |  |  | 4 µg/mL
β-Isomer of CH3—(CH2)10—NH—C(═O)-(GABA)-Amphomycin [Compound 330] |  |  |  |  |  |  |  |  |  |  |  |  |  |  | >64^† μg/mL
β-Isomer of CH3—(CH2)13—NH—C(═O)-Amphomycin [Compound 329] |  |  |  |  |  |  |  |  |  |  |  |  |  |  | 4^† μg/mL
